Experimental data: patent US20110135750A1, “ANTI-ALLERGEN COMBINATIONS OF CALCIUM AND LANTHANUM” (priority 2008, published 2011)

Biological target: T1, Der p1 (Dermatophagoides pteronyssinus, UniProt P08176)
T1 construct: Allergen stock solutions were derived from the extraction of the rearing medium of dust mites Dermatophagoides pteronyssinus; from tissue; host or cells: rearing medium of dust mites Dermatophagoides pteronyssinus (crude extract)
T1 sequence (P08176 99-320): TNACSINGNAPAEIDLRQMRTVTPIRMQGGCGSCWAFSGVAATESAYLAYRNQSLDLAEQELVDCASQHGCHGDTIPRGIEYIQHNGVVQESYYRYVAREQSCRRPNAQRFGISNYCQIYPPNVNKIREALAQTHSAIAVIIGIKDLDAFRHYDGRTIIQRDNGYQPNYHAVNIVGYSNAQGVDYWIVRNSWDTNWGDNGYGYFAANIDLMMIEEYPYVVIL
Assay: Allergen denaturing efficacy on Der p1-treated tissue, ELISA
Assay type: biochemical
Settings: for Efficacy (%) on Der p1: tissue treated at 100 ml/m^2
Description: Allergen stock solutions were derived from the extraction of the rearing medium of dust mites Dermatophagoides pteronyssinus or by the extraction of cat exposed tissues. Allergens were always stored or diluted in Phosphate Buffered Saline (PBS) of pH 7.4 containing NaCl 8 g/L, KH2PO4 0.2 g/L, Na2HPO4 1.15 g/L, KCl 0.2 g/L, Tween 20 0.5 ml/L.
A tissue (Triconet: 40% PP, 60% Viscose, 0.7 mm thickness, 70 g/m^2) was treated with known amount of antigen, allowed to dry overnight and then treated with the allergen denaturing composition at 100 ml/m^2. The next day, the tissue was extracted in 5 ml of PBS and the concentration of allergen was determined by ELISA. ELISA tests were carried out according to the instructions of the commercially available test kits with monoclonal antibodies (www.inbio.com).
Briefly, anti-Der p1 or anti-Fel d1 monoclonal antibodies are diluted 1/1000 in 50 mM carbonate-bicarbonate buffer, pH 9.6. and 100 μl is coated on a polystyrene microtiter well and allowed to incubate overnight at 4° C. Then, wells are washed 3 times with PBS containing 0.05% Tween 20, pH 7.4. (further called: wash step with PBS-T). After incubation with 100 μl 1% BSA in PBS-T for 30 minutes at room temperature, another wash step is executed. Then, 100 μl of diluted allergen standard or test samples is added to each well and incubated for 1 hour at room temperature. After a wash step, 100 μl per well of 1/1000 diluted biotinylated anti-Der p1 or anti-Fel d1 monoclonal antibody is added and incubated for 1 hour at room temperature. Then, another wash step is executed and 100 μl/well of a Streptavidin-Peroxidase (Sigma S5512, reconstituted in 1 ml distilled water) is added as a 1/1000 dilution in PBS-T and incubated for 30 minutes at room temperature. After a final wash step, 100 μl/well of 1 mM ABTS (2,2′-azino-bis(3-ethylbenzthiazoline-6-sulfonic acid)diammonium salt) in 70 mM citrate phosphate buffer, pH 4.2, containing 0.03% H2O2, is added. The assay was allowed to develop after dark green colouring of the highest concentration of the allergen standard. Optical density was read at 405 nm.
Standard allergen dilution curves were taken for calibration. The range in which allergens can be quantified is 0.2-20 ppb for Fel d1 and from 1-100 ppb for Der p1. Dilutions were made until the concentration was in the right order of magnitude to enable quantification and percent reduction by the allergen denaturing composition.
Possible synergy was investigated using Limpet's formula (Richter, D. L., Pestic. Sci. 1987, 19: 309-315): […]
where Ec is the expected additive response, or calculated activity, X is the observed percentage control when component A is applied alone and Y is the observed percentage control when component B is applied alone. Synergy was considered to occur when the observed effect, or measured activity, of a combination of both components was greater than the corresponding Ec value.

Row | Structure (SMILES) | Efficacy (%) on Der p1 (Ca^2+ 0.05% alone) | Efficacy (%) on Der p1 (Ca^2+ 0.125% alone) | Efficacy (%) on Der p1 (Ca^2+ 0.5% alone) | Efficacy (%) Expected value (Ec) (Ca^2+ 1%, La^3+ 0%) | Efficacy (%) Measured value (Ca^2+ 1%, La^3+ 0%) | Efficacy (%) Synergy (measured minus expected) (Ca^2+ 1%, La^3+ 0%) | Efficacy (%) on Der p1 (Ca^2+ 2.0% alone) | Efficacy (%) on Der p1 (La^3+ 0.01% alone) | Efficacy (%) on Der p1 (La^3+ 0.05% alone) | Efficacy (%) on Der p1 (La^3+ 0.2% alone) | Efficacy (%) on Der p1 (La^3+ 1.0% alone)
1 | [Ca+2] [Ca^2+] | 0% | 0% | 28% | 46% | 46% | 0% | 96% |  |  |  | 
2 | [La+3] [La^3+] |  |  |  |  |  |  |  | 12% | 0% | 0% | 100%
